A value given as a limit tells only on which side of the number the result lay.

What all share (format): biochemical
One test has as its target electric eel AChE (Electrophorus electricus, UniProt O42275). Put plainly: Cholinesterase enzyme inhibition assay.
A further test concerns the target hGSK-3β (Homo sapiens, UniProt P49841). Description: GSK-3β Kinase-Glo enzyme inhibition assay, with enzyme kinetics. (In general: In Kinase-Glo more light means more ATP remaining.)
Another test addresses horse serum BChE (Equus caballus, UniProt P81908). Put plainly: Cholinesterase enzyme inhibition assay.
Test [1] addresses human recombinant β-secretase (BACE1) (Homo sapiens, UniProt P56817). Description: BACE1 FRET enzyme inhibition assay, with enzyme kinetics. The following applies: IC50 BACE1, mean ± SD, triplicate.

Sequence of horse serum BChE (P81908 whole entry): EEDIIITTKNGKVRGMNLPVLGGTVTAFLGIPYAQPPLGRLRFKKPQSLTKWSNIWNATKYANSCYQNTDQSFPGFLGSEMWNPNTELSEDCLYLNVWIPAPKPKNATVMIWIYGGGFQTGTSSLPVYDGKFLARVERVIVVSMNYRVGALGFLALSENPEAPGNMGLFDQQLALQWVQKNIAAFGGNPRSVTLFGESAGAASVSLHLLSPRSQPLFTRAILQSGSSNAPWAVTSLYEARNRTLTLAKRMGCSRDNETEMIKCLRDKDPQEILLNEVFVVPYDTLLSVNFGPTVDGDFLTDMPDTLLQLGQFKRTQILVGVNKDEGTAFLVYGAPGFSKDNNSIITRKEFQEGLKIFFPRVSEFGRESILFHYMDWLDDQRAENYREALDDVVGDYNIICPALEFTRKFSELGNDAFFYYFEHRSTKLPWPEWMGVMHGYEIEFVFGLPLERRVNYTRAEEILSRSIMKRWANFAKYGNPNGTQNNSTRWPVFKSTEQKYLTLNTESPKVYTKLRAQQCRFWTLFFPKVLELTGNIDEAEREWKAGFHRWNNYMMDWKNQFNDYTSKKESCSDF
Sequence of hGSK-3β (P49841 whole entry): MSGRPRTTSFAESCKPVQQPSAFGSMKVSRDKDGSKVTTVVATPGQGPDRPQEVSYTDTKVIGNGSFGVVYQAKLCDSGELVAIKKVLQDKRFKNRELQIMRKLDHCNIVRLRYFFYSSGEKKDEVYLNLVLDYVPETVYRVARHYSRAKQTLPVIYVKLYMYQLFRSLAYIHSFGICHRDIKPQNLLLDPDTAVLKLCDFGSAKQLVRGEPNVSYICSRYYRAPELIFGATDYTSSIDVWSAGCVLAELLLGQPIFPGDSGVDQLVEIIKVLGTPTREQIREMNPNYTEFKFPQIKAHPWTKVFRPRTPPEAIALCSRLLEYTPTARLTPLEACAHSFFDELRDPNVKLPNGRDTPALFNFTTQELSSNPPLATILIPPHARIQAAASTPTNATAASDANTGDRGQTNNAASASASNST
Sequence of electric eel AChE (O42275 24-633): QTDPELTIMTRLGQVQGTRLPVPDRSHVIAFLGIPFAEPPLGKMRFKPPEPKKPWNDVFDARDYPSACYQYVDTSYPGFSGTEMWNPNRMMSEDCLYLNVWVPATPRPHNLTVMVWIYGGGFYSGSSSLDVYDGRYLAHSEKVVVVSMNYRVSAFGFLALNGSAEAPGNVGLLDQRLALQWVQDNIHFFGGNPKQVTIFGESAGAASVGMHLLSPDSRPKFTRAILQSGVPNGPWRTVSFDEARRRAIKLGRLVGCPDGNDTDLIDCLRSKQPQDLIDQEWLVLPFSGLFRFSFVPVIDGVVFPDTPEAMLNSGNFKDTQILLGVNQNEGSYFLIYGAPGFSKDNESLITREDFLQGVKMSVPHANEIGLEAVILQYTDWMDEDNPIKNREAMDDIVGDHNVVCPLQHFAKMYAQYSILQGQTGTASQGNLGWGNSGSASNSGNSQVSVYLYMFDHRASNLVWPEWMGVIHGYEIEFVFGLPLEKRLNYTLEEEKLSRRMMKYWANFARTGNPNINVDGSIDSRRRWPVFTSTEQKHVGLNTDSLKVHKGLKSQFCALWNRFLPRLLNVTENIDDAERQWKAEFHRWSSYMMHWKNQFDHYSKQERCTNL
Sequence of human recombinant β-secretase (BACE1) (P56817 46-501): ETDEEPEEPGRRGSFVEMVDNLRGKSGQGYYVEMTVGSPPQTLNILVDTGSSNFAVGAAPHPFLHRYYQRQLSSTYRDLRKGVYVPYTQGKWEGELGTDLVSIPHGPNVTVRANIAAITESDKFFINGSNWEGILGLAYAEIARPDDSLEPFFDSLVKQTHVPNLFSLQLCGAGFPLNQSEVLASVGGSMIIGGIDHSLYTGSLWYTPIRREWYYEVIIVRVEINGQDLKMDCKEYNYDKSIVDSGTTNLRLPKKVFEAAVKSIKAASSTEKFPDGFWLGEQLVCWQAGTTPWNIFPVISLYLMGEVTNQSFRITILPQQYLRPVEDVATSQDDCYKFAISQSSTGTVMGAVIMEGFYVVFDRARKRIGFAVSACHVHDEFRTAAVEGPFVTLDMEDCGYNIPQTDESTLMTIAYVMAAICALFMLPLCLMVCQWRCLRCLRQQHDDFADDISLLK

For orientation: IC50 means the concentration at which inhibition is half-maximal. Regarding `CC(C)=CCC/C(C)=C/Cc1c(O)ccc2cc(-c3cc(O)cc(O)c3CC=C(C)C)oc12` [mulberrofuran D (1), mulberrofuran D], the half-inhibitory concentration (IC50) against electric eel AChE was 23 ± 1.15 µM; against hGSK-3β, 8.12 ± 0.66 µM; against horse serum BChE, 6.12 ± 1.41 µM.
`C[C@@]12C=C(c3c(O)cc(-c4cc5ccc(O)cc5o4)cc3O)C[C@@H](C1)c1ccc(O)cc1O2` [mulberrofuran H (3), mulberrofuran H]: the IC50 was 1.04 ± 0.78 µM in test [1], above 200 µM against electric eel AChE, 4.41 ± 0.3 µM on hGSK-3β and 64.5 ± 3.1 µM against horse serum BChE.

The record behind these values is PMC6649263 (ACS Omega, 2019).
